This is an account of results in US20090325977A1 (priority 2004, published 2009).

Bounds are passed on as bounds.

Assay [1] deals with basal endothelial cell proliferation (HUVEC). The assay is described as follows: HUVEC assay, basal endothelial cell proliferation. It is filed as cell-based. To be noted: Homo sapiens, no VEGF stimulation.
Assay [2] relates to VEGF-stimulated endothelial cell proliferation (HUVEC). The assay is described as follows: HUVEC assay, VEGF-stimulated endothelial cell proliferation. It is filed as cell-based. As to conditions: Homo sapiens.
The test system of the next assay is MG63 cells. As to conditions: MG63 cells stimulated by PDGF-AA; read-out: IC50, PDGFR-α dependent cellular proliferation; cited from earlier work.
For the next assay, the system named is Calu-6 tumour xenograft. The assay is described as follows: Calu-6 tumour xenograft, in vivo solid tumour model. As to conditions: once-daily oral, 28 days.
The target in assay [3] is stem cell factor receptor tyrosine kinase (SCF RTK, c-kit) (Homo sapiens, UniProt P10721). The assay is described as follows: inhibition of c-kit. It is filed as biochemical.
Chain of stem cell factor receptor tyrosine kinase (SCF RTK, c-kit) (P10721 26-976): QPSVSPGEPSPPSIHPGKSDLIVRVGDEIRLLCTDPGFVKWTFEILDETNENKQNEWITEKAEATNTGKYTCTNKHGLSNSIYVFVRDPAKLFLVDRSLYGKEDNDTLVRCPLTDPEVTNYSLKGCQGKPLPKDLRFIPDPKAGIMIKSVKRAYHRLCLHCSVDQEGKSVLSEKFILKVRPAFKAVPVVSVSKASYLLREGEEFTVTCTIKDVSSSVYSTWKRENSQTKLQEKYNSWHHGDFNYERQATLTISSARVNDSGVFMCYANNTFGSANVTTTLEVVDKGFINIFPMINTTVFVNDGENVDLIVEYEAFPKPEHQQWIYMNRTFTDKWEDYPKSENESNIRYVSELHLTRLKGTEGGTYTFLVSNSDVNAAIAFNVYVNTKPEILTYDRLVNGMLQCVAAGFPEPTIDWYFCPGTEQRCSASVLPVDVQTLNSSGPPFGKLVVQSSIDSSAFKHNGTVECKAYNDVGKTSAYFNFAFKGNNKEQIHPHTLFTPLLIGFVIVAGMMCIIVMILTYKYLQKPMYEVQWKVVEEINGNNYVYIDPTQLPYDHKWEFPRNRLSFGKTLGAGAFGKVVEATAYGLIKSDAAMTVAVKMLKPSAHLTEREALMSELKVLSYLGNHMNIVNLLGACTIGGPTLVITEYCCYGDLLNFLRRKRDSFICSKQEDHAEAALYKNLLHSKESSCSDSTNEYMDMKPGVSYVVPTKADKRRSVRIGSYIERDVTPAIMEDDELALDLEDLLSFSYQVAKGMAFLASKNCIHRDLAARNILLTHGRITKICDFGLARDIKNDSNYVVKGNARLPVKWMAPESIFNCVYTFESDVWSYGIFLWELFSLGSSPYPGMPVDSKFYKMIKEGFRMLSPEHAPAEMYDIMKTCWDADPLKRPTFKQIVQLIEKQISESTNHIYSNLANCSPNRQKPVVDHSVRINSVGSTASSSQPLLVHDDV

Take `COc1cc2c(Oc3ccc4[nH]c(C)cc4c3F)ncnc2cc1OCCCN1CCCC1` [AZD2171, 4-(4-fluoro-2-methyl-1H-indol-5-yloxy)-6-methoxy-7-(3-(pyrrolidin-1-yl)propoxy)quinazoline]: the results for the IC50 (in assay [1]; in assay [2]; in the assay with MG63 cells) were above 500 nM, 0.4 ± 0.2 nM and 40 nM, respectively. The “inhibition of Calu-6 tumour xenograft growth” value in the assay on Calu-6 tumour xenograft (1.5 mg/kg/day, P<0.01) came out at 49%; in the assay with Calu-6 tumour xenograft (3 mg/kg/day, P<0.0001) it was 69%; with Calu-6 tumour xenograft (6 mg/kg/day, P<0.0001), 91%. In assay [3], the inhibition of c-kit result is on record as “inhibits c-kit”.
